Data on eleven molecules can be found in patent US9809602B2, “Compounds for treating viral infections” (INSTITUT PASTEUR KOREA, priority 2014, dated 2017).

In data set [1] the test system is HCV genotype 1b (J4) chimeric HCVcc. Put plainly: Pan-genotypic activity test using chimeric HCVcc, genotype 1b. In kind it is cell-based. The conditions noted are these: Hepatitis C virus, read-out: EC50 gt1b. On the procedure:
(§1) Naïve Huh-7.5 target cells were plated at 2400 cells/well in 25 μL of culture media in 384-well plates (Greiner bio-one, μ clear black). After overnight incubation, compounds serially diluted in 10 μL of cell culture media were added. After 2 h compound treatment, cells were inoculated with 40 μL of genotype 1/2 chimeric cell culture derived HCV (HCVcc) which express structural proteins of an HCV genotype 1a isolate (TN accession number EF621489) and non-structural proteins of HCV genotype 2a (JFH-1) with nano-luciferase reporter. At 72 h post infection, nano-luciferase activity (Nano-Glo™, Promega) and cellular ATP (Cell titer-Glo™, Promega) were measured as a marker for HCV replication and cytotoxicity, respectively. EC50 and CC50 were calculated by non-linear regression analyzing using GraphPad Prism (GraphPad Software).
(§2) In order to evaluate cross-genotypic antiviral activity against various HCV genotypes, Formulas I and II were tested using chimeric HCVcc as described above. HCV chimeras expressing the structural proteins of HCV genotype 1b (J4), 2a (J6), 2b (J8), 3a (S52), 4a (ED43), 5a (SA13), 6a (HK6a) or 7a (QC69), followed by HCV genotype 2a (JFH-1) derived non-structural proteins responsible for viral RNA replication and Renilla luciferase reporter gene were used to monitor viral replication.

In data set [2] the test system is HCV genotype 2a (J6) chimeric HCVcc. Put plainly: Pan-genotypic activity test using chimeric HCVcc, genotype 2a. The conditions noted are these: Hepatitis C virus, read-out: EC50 gt2a. In kind it is cell-based. On the procedure: as §1, §2
Data set [3] deals with HCV genotype 2b (J8) chimeric HCVcc. The experiment in a line: Pan-genotypic activity test using chimeric HCVcc, genotype 2b. In kind it is cell-based. The conditions noted are these: Hepatitis C virus, read-out: EC50 gt2b. On the procedure: as §1, §2
The subject of data set [4] is HCV genotype 3a (S52) chimeric HCVcc. Put plainly: Pan-genotypic activity test using chimeric HCVcc, genotype 3a. In kind it is cell-based. The conditions noted are these: Hepatitis C virus, read-out: EC50 gt3a. The method, then: as §1, §2
Data set [5] has as its system HCV genotype 4a (ED43) chimeric HCVcc. Put plainly: Pan-genotypic activity test using chimeric HCVcc, genotype 4a. In kind it is cell-based. The conditions noted are these: Hepatitis C virus, read-out: EC50 gt4a. The method, then: as §1, §2
The subject of data set [6] is HCV genotype 5a (SA13) chimeric HCVcc. The experiment in a line: Pan-genotypic activity test using chimeric HCVcc, genotype 5a. The format is cell-based. The conditions noted are these: Hepatitis C virus, read-out: EC50 gt5a. On the procedure: as §1, §2
Data set [7] has as its system HCV genotype 6a (HK6a) chimeric HCVcc. The experiment in a line: Pan-genotypic activity test using chimeric HCVcc, genotype 6a. The format is cell-based. The conditions noted are these: Hepatitis C virus, read-out: EC50 gt6a. The method, then:
as §1, §2

Data set [8] relates to HCV genotype 7a (QC69) chimeric HCVcc. Put plainly: Pan-genotypic activity test using chimeric HCVcc, genotype 7a. The format is cell-based. The conditions noted are these: Hepatitis C virus, read-out: EC50 gt7a. The method, then: as §1, §2
Data set [9] deals with HCV genotype 1a chimeric HCVcc. Put plainly: Pan-genotypic activity test using chimeric HCVcc, genotype 1a. The format is cell-based. The conditions noted are these: Hepatitis C virus, read-out: EC50 gt1a.
The test system of data set [10] is genotype 1/2 chimeric cell culture derived HCV (HCVcc). Put plainly: Genotype 1/2 chimeric HCVcc assay (nano-luciferase, HCV replication). In kind it is cell-based. The conditions noted are these: Hepatitis C virus, Huh7.5, 72 h. The method in brief: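 Huh-7.5 cells (2400/well) pretreated 2 h with serially diluted compound, then infected with nano-luciferase genotype 1a/2a (JFH-1) chimeric HCVcc. At 72 h post infection, nano-luciferase reported replication and cellular ATP reported cytotoxicity; EC50 and CC50 by non-linear regression.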

One may read the EC50 as the midpoint of the concentration-response curve. By melting point is commonly meant the temperature of the solid-liquid transition.

For the molecule `CCOC(=O)c1c(NC(=O)NCc2c(C(F)(F)F)sc3c2CCN(CCN(C)C)C3)sc2c1CCCC2` [No. 316], the EC50 in data set [1] is less than 100 nM; in data set [2] it was less than 100 nM; in data set [3], less than 100 nM; in [4] it was less than 100 nM; in [5], less than 100 nM; in [6], 1 to 10 µM. For the same molecule, the half-maximal effective concentration (EC50) in data set [7] was more than 10 µM; in data set [8] it was less than 100 nM; in data set [9] it was less than 100 nM.

With `CCOC(=O)c1c(NC(=O)NCc2c(-n3cccc3)sc3c2CCN(CC)C3)sc(C)c1C` [Compound 12], the melting point is 196.9 °C. The EC50 in data set [10] was 100 to 1000 nM.

For the molecule `O=C(NCCCN1CCC(N2CCCCC2)CC1)c1ccc(Oc2ccccc2)cc1` [No. 1013], the concentration giving a half-maximal response (EC50) is more than 10000 nM in [1]; 1000 to 10000 nM in [2]; 100 to 1000 nM in data set [3]; more than 10000 nM in [4]; more than 10000 nM in data set [5]; more than 10 µM in [6]. Also, the half-maximal effective concentration (EC50) was more than 10 µM in [7], more than 10000 nM in data set [8] and more than 10000 nM in [9].

Regarding `CC(C)OC(=O)c1c(NC(=O)NCc2c(C(F)(F)F)sc3c2CCNC3)sc2c1CCCC2` [No. 167], the EC50 is less than 100 nM in [1]; less than 100 nM in data set [2]; less than 100 nM in data set [3]; less than 100 nM in data set [4]; less than 100 nM in data set [5]; 1 to 10 µM in data set [6]. Further, the figures for the EC50 in data set [7], in [8] and in data set [9] were more than 10 µM, less than 100 nM and less than 100 nM, respectively.

As for `CCOC(=O)c1c(NC(=O)NCc2c(-n3cccc3)sc3c2CCN(CC(C)C)C3)sc2c1CCCC2` [No. 27], the concentration for a half-maximal effect (EC50) in data set [1] was 100 to 1000 nM; in data set [2] it was 100 to 1000 nM; in data set [3] it was 100 to 1000 nM; in data set [4], 100 to 1000 nM; in data set [5], 100 to 1000 nM; in data set [6] it was 1 to 10 µM. In addition, the half-maximal effective concentration (EC50) in [7] is more than 10 µM; in [8] it was 100 to 1000 nM; in [9] it was 100 to 1000 nM.

Consider `CCOC(=O)c1c(NC(=O)NCc2c(-n3cccc3)sc3c2CCNC3)sc2c1CCCC2` [No. 19], for which the concentration giving a half-maximal response (EC50) is 100 to 1000 nM in data set [1]; 100 to 1000 nM in [2]; 100 to 1000 nM in [3]; 100 to 1000 nM in [4]; 100 to 1000 nM in data set [5]; 1 to 10 µM in [6]. The EC50 in data set [7] was more than 10 µM; in [8] it was 100 to 1000 nM; in [9], 100 to 1000 nM.

With `O=C(NCCCN1CCC(N2CCCCC2)CC1)c1ccc(-c2ccc(C(F)(F)F)cc2)cc1` [No. 1019], the EC50 in data set [1] is more than 10000 nM; in [2] it was 1000 to 10000 nM; in data set [3], 1000 to 10000 nM; in data set [4], more than 10000 nM; in data set [5], more than 10000 nM; in data set [6], more than 10 µM. Moreover, the EC50 is more than 10 µM in [7], more than 10000 nM in [8] and more than 10000 nM in data set [9].

As to `CC(C)(C)OC(=O)c1c(NC(=O)NCc2c(C(F)(F)F)sc3c2CCNC3)sc2c1CCCC2` [No. 121], the EC50 in [1] was less than 100 nM; in [2], less than 100 nM; in data set [3] it was less than 100 nM; in [4], less than 100 nM; in [5], less than 100 nM; in data set [6], 1 to 10 µM. Besides, the figures for the half-maximal effective concentration (EC50) in data set [7], in data set [8] and in data set [9] were more than 10 µM, less than 100 nM and less than 100 nM, respectively.

As to `CCN1CCc2c(sc(-n3cccc3)c2CNC(=O)Nc2sc3c(c2C(=O)OC(C)(C)C)CCCC3)C1` [No. 14], the concentration giving a half-maximal response (EC50) is 100 to 1000 nM in data set [1]; 100 to 1000 nM in data set [2]; less than 100 nM in data set [3]; 100 to 1000 nM in [4]; 100 to 1000 nM in data set [5]; 1 to 10 µM in [6]. Moreover, the EC50 in [7] is more than 10 µM; in data set [8], less than 100 nM; in data set [9] it was 100 to 1000 nM.

Regarding `CCOC(=O)c1c(NC(=O)NCc2c(-n3cccc3)sc3c2CCN(S(C)(=O)=O)C3)sc2c1CCCC2` [No. 21], the 50% effective concentration (EC50) in data set [1] is less than 100 nM; in data set [2] it was less than 100 nM; in data set [4], less than 100 nM; in [5], less than 100 nM; in data set [6], 1 to 10 µM; in data set [7], more than 10 µM. The 50% effective concentration (EC50) in data set [8] and in data set [9] was less than 100 nM each time.

The molecule `CCN1CCc2c(sc(-n3cccc3)c2CNC(=O)Nc2sccc2C(=O)OC)C1` [Compound 11] yielded a melting point of 201.8 °C. Also, the EC50 in [10] was in the range of 1000 to 10000 nM.
